Laboratory results: patent US8658638B2, “Mineralocorticoid receptor antagonist and methods of use” (priority 2009, dated 2014)

Biological target: T1, human androgen receptor (AR) (Homo sapiens, UniProt P10275)
T1 sequence (P10275 1-920): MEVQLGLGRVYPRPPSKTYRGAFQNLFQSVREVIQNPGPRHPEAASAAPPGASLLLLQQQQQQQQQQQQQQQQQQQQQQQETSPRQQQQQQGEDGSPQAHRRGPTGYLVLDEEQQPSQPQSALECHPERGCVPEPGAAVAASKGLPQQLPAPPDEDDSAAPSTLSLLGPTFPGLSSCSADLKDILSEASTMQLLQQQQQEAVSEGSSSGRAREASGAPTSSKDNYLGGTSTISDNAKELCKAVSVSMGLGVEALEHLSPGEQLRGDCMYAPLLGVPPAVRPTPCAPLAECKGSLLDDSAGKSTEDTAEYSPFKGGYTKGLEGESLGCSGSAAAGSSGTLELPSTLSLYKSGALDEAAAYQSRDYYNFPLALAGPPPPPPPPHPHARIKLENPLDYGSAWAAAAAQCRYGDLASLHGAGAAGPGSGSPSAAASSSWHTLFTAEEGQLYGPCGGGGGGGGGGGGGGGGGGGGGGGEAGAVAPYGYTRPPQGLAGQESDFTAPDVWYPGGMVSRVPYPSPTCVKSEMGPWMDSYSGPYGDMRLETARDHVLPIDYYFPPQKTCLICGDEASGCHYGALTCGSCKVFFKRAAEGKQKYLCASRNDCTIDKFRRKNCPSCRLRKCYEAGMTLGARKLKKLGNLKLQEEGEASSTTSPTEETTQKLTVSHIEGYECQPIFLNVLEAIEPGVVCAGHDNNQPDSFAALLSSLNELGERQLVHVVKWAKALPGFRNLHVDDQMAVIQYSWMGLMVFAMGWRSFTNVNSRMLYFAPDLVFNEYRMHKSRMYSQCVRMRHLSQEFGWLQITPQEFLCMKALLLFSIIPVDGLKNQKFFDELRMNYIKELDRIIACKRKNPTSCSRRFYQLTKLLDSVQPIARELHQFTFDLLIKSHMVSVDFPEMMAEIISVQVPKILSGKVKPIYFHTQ
Assay: Nuclear hormone receptor panel screen (luciferase reporter, HEK293), AR
Assay type: cell-based
From the text: Aldosterone exerts it physiological effects through interaction with the mineralocorticoid receptor. Following cytoplasmic binding of aldosterone to MR, the ligand receptor complex translocates to the cell nucleus where it binds to hormone response elements on DNA to initiate expression of target genes. […] The solvents, reagents, and ligands employed in the functional assay are readily available from commercial sources, or can be prepared by one of ordinary skill in the art.
Human embryonic kidney HEK293 cells are transfected with steroid hormone receptor and reporter gene plasmids using a suitable transfection reagent such as Fugene™. […] After 24 hours incubation with test compounds, cells are lysed and luciferase activity is determined using standard techniques.
Data are fitted to a four parameter-fit logistic curve to determine EC50 values. […] IC50 values are determined similarly using antagonist mode assay data. In the antagonist mode, percent inhibitions are determined by comparing test compound activity in the presence of low concentration of agonist (0.08 nM aldosterone for MR, 0.25 nM dexamethasone for GR, 0.66 nM of methyltrienolone for AR, and 0.08 nM of promegestone for PR) to the response produced by the same low concentration of agonist in the absence of test compound.

EC50 (agonist mode): > 10 µM
IC50 (antagonist mode, 0.66 nM methyltrienolone): > 10 µM
SMILES: O=c1[nH]c2cc(/C=C3\c4ccccc4COc4cc(F)ccc43)ccc2n1[C@@H]1C[C@@H]2COCCN2C1 [Compound (I), 5-((E)-(3-fluorodibenzo[b,e]oxepin-11(6H)-ylidene)methyl)-1-((7R,8aR)-hexahydro-1H-pyrrolo[2,1-c][1,4]oxazin-7-yl)-1H-benzo[d]imidazol-2(3H)-one]
